Structures are written as SMILES. Like-named read-outs stand apart in the source and are kept apart here.

Assay [1] concerns HepG2 cell line. In words: In vitro cell proliferation assay (MTT), HepG2. It counts as cell-based. Conditions: Homo sapiens, read-out: EC50, anti-proliferative activity. The essentials: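 Duplicate wells of each line were exposed for 72 hr to 10 nM–3 μM compound. HRMEC were plated at 1×10^4 cells per well, cancer cells at 5×10^3.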
The test system of assay [2] is HuCCT1 cell line. As to the kind of experiment: In vitro cell proliferation assay (MTT), HuCCT1. Type of assay: cell-based. The note with it: Homo sapiens, HuCCT-1; HuCCT1, 72 hr, MTT; read-out: EC50, anti-proliferative activity. The protocol: (§1) 2) In Vitro Cell Proliferation Assays (Table 22 to Table 35)
(§2) Cancer cell lines (5×10^3 cells per well) or HUVEC (1×10^4 cells per well) or HRMEC (1×10^4 cells per well) were distributed in 96-well plates and incubating in duplicate with escalating concentrations (10 nM to 3 μM) of compounds for 72 hr. Cell proliferation was measured using MTT (3[4,5-dimethylthiazol-2-yl]-2,5-diphenyltetrazolium bromide).

The target of assay [3] is T1, EGFR (ErbB1) (Homo sapiens, UniProt P00533).
T1 construct: purchased Invitrogen
T1 sequence (P00533 25-1210): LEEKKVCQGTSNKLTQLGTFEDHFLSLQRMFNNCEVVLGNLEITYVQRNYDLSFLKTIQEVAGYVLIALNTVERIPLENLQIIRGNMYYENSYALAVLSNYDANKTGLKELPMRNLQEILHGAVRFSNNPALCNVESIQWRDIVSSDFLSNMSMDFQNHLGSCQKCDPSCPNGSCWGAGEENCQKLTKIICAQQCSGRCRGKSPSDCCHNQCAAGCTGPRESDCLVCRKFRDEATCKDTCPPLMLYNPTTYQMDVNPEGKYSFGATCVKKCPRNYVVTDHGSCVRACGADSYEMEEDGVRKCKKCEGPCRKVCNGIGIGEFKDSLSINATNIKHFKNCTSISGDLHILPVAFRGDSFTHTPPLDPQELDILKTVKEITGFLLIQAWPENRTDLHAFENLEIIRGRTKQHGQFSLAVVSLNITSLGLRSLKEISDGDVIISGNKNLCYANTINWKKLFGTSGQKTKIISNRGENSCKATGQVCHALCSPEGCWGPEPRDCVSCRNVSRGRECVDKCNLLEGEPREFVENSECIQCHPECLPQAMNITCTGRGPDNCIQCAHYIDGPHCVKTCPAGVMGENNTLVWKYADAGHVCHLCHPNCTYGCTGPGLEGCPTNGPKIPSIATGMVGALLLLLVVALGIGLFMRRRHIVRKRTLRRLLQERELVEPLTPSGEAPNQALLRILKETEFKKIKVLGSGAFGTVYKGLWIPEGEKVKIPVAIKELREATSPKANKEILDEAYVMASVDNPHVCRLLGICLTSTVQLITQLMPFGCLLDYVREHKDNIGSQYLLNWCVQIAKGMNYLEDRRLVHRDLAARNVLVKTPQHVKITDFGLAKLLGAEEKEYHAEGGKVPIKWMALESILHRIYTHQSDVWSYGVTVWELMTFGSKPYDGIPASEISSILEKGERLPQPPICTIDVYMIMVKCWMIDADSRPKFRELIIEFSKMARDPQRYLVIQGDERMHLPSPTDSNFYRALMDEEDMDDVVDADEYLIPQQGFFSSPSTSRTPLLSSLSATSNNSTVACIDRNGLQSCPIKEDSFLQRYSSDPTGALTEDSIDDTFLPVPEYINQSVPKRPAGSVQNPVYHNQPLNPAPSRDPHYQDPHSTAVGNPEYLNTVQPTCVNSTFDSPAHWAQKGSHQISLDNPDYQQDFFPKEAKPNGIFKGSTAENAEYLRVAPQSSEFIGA
As to the kind of experiment: In vitro kinase assay (Z'-LYTE), EGFR (ErbB1). It counts as biochemical. The note with it: read-out: % of inhibition of the kinase compared to the control. The essentials:
(§3)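 Compounds at a single dose (100 nM; 10 μM for both ABL forms) were run in a fluorescence coupled-enzyme kinase format relying on differential protease sensitivity of phospho versus non-phospho peptide. Reaction progress was measured ratiometrically from the FRET pair.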

The subject of assay [4] is HuH7 cell line. As to the kind of experiment: In vitro cell proliferation assay (MTT), HuH7. It counts as cell-based. The note with it: Homo sapiens, Huh-7; HuH7, 72 hr, MTT; read-out: EC50, anti-proliferative activity. The protocol: as §1, §2
The target in assay [5] is T2, PDGFRA (PDGFR alpha) (Homo sapiens, UniProt P16234).
T2 construct: purchased Invitrogen
In words: In vitro kinase assay (Z'-LYTE), PDGFRA. It counts as biochemical. The note with it: read-out: % of inhibition of the kinase compared to the control. In short, it runs like this:
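Single-point screening used 100 nM compound for VEGFR1 and PDGFRA, 10 μM for wild-type and T315I ABL. Activity was scored via Z'-LYTE emission ratio.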

For assay [6], the target named is T3, FGFR2 (Homo sapiens, UniProt P21802).
T3 construct: purchased Invitrogen
T3 sequence (P21802 22-821): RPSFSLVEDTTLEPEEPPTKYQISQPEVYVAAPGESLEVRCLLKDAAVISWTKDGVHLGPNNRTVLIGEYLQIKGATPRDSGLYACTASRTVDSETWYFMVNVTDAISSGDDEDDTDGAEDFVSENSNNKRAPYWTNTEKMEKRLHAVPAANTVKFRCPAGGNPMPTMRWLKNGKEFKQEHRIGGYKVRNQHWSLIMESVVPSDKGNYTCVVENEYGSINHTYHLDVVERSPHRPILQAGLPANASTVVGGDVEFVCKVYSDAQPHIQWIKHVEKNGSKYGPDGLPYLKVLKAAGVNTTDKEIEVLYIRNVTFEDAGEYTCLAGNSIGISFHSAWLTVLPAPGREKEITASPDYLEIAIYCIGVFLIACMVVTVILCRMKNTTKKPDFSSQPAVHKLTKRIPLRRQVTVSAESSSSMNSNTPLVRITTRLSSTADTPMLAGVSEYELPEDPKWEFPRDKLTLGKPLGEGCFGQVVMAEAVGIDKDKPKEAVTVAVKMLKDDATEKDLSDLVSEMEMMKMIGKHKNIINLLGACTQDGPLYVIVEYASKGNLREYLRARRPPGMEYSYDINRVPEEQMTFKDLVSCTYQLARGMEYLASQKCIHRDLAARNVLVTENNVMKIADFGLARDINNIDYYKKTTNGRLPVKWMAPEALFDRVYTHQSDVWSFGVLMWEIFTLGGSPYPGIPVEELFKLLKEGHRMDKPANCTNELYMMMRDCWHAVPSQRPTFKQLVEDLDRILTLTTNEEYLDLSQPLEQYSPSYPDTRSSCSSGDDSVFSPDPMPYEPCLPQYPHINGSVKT
As to the kind of experiment: In vitro kinase assay (Z'-LYTE), FGFR2. It counts as biochemical. Conditions: read-out: % of inhibition of the kinase compared to the control. In short, it runs like this:
as §3

In assay [7] the target is T4, SRC (Homo sapiens, UniProt P12931).
T4 construct: purchased Invitrogen
T4 sequence (P12931 whole entry): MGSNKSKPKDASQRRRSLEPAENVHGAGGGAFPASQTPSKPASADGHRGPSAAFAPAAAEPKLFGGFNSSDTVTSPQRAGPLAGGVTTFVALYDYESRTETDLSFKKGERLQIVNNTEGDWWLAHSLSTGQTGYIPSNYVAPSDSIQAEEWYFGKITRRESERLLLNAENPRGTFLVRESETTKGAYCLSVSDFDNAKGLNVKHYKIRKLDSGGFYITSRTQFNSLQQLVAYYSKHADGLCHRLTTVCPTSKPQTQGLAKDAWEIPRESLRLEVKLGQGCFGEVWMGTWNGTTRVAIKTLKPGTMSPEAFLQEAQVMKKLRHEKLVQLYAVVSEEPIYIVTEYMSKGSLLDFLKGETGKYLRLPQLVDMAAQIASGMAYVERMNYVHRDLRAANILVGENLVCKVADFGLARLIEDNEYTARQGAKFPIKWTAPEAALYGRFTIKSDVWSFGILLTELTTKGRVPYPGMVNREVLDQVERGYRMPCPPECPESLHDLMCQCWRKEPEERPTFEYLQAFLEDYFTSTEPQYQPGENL
As to the kind of experiment: In vitro kinase assay (Z'-LYTE), SRC. Type of assay: biochemical. Conditions: read-out: % of inhibition of the kinase compared to the control. The essentials:
as §3

For assay [8], the target named is T5, BRAF (Homo sapiens, UniProt P15056).
T5 construct: purchased Invitrogen
T5 sequence (P15056 whole entry): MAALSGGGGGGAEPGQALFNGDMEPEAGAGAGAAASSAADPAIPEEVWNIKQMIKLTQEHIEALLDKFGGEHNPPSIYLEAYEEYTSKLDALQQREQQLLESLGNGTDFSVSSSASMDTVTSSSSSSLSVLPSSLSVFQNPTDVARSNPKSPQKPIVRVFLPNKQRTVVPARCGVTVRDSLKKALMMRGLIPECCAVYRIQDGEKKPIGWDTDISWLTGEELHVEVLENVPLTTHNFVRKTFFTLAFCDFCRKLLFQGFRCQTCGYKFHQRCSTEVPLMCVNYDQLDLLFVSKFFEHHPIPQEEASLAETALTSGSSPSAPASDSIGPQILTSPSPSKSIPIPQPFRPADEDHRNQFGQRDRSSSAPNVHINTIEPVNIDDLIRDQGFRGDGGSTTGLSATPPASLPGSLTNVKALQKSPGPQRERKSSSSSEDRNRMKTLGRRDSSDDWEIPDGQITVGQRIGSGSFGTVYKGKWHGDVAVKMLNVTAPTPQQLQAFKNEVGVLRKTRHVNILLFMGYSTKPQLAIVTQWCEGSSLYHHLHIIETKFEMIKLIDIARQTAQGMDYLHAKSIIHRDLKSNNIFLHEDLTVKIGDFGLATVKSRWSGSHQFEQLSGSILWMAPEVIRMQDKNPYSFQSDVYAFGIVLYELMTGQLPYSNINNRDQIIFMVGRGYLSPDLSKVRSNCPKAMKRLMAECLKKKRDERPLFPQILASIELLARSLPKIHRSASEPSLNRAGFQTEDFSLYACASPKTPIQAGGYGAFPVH
As to the kind of experiment: In vitro kinase assay (Z'-LYTE), BRAF. Type of assay: biochemical. Conditions: read-out: % of inhibition of the kinase compared to the control. The essentials: as §3

Assay [9] deals with T6, KDR (VEGFR2) (Homo sapiens, UniProt P35968).
T6 construct: purchased Invitrogen
T6 sequence (P35968 20-1356): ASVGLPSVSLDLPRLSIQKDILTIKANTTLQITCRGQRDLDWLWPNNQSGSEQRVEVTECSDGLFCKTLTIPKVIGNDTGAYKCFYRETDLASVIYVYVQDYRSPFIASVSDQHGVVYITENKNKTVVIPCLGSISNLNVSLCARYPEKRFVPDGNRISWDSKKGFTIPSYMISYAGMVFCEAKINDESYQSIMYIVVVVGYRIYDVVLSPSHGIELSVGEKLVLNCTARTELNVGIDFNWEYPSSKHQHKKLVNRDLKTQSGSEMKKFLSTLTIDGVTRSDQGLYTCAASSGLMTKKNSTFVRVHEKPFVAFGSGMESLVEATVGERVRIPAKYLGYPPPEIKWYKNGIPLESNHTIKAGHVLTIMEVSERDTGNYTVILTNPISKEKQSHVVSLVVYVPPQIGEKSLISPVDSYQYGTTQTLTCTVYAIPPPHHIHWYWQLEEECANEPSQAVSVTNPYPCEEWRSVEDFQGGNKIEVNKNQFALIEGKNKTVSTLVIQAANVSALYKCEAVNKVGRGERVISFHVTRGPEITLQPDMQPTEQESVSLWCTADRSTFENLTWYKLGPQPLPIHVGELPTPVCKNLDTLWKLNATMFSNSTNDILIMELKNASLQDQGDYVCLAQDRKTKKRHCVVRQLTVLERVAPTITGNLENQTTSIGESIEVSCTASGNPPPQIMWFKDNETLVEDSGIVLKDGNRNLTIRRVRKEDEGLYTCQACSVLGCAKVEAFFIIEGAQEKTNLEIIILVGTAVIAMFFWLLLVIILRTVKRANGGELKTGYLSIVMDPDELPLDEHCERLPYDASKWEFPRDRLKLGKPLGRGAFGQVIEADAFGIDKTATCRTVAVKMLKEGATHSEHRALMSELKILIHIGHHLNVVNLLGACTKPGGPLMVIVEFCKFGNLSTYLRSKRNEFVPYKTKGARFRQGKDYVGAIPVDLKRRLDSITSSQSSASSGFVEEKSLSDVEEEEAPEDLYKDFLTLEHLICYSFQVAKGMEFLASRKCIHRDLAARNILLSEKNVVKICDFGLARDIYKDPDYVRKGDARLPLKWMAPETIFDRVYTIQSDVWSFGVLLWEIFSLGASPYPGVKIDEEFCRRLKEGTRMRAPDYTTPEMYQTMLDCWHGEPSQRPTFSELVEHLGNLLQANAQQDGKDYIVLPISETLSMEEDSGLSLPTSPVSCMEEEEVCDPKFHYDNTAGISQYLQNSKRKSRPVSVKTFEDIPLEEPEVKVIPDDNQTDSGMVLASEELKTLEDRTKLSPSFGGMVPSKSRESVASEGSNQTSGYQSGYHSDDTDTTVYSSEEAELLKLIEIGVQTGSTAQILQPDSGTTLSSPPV
As to the kind of experiment: In vitro kinase assay (Z'-LYTE), KDR (VEGFR2). It counts as biochemical. Conditions: read-out: % of inhibition of the kinase compared to the control. In short, it runs like this:
as §3

The target of assay [10] is T7, EGFR (ErbB1) T790M L858R (Homo sapiens, UniProt P00533, L858R/T790M).
T7 construct: purchased Invitrogen
In words: In vitro kinase assay (Z'-LYTE), EGFR (ErbB1) T790M L858R. It counts as biochemical. Conditions: read-out: % of inhibition of the kinase compared to the control. The method, then:
1) In Vitro Kinase Assays (Table 10 to Table 21)
The inhibitory activity of the compounds on several kinases including BRAF, EGFR (ErbB1), EGFR (ErbB1) T790M L858R, FGFR2, KDR (VEGFR2), PDGFRA (PDGFR alpha), SRC and other was evaluated by Invitrogen using the Z′-LYTE® technology. Briefly, the Z′-LYTE® biochemical assay employs a fluorescence-based, coupled-enzyme format and is based on the differential sensitivity of phosphorylated and non-phosphorylated peptides to proteolytic cleavage. The peptide substrate is labeled with two fluorophores—one at each end—that make up a FRET pair. A ratiometric method, which calculates the ratio (the Emission Ratio) of donor emission to acceptor emission after excitation of the donor fluorophore at 400 nm, is used to quantitate reaction progress.
The compounds are screened in 1% DMSO (final) in the well. For 10 point titrations, 3-fold serial dilutions are conducted from the starting concentration. All Peptide/Kinase Mixtures are diluted to a 2× working concentration in the appropriate Kinase Buffer. All ATP Solutions are diluted to a 4× working concentration in Kinase Buffer (50 mM HEPES pH 7.5, 0.01% BRIJ-35, 10 mM MgCl2, 1 mM EGTA). ATP Km apparent is previously determined using a Z′-LYTE® assay.
Each compound was incubated at a concentration of 100 nM (excepted to test the activity against ABL and ABL T315I for which the compounds were incubated at a concentration of 10 μM) and the tables 10 to 21 summarize the results obtained showing the inhibitory power of a compound.

Assay [11] deals with HuH6 Clone 5 cell line. As to the kind of experiment: In vitro cell proliferation assay (MTT), HuH6 Clone 5. It counts as cell-based. Conditions: read-out: EC50, anti-proliferative activity. The method, then: as §1, §2
Assay [12] deals with HUVEC. As to the kind of experiment: In vitro cell proliferation assay (MTT), HUVEC. Type of assay: cell-based. The note with it: Homo sapiens, read-out: EC50, anti-proliferative activity. The essentials: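 Anti-proliferative effects on human umbilical vein endothelial cells were assessed by an MTT (3[4,5-dimethylthiazol-2-yl]-2,5-diphenyltetrazolium bromide) readout. Cells (1×10^4 cells per well) in 96-well plates were incubated in duplicate for 72 hr with escalating test compound concentrations spanning 10 nM to 3 μM.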

Assay [13] has as its system A549 cell line. In words: In vitro cell proliferation assay (MTT), A549. It counts as cell-based. Conditions: Homo sapiens, read-out: EC50, anti-proliferative activity. The method, then: as §1, §2
In assay [14] the test system is H1975 cell line. In words: In vitro cell proliferation assay (MTT), H1975. It counts as cell-based. The note with it: Homo sapiens, NCI-H1975; H1975, 72 hr, MTT; read-out: EC50, anti-proliferative activity. The method, then: as §1, §2
For assay [15], the system named is HT29 cell line. In words: In vitro cell proliferation assay (MTT), HT29. Type of assay: cell-based. The note with it: Homo sapiens, HT-29; HT29, 72 hr, MTT; read-out: EC50, anti-proliferative activity. The protocol: as §1, §2
The test system of assay [16] is HeLa cell line. As to the kind of experiment: In vitro cell proliferation assay (MTT), HeLa. Type of assay: cell-based. The note with it: Homo sapiens, read-out: EC50, anti-proliferative activity. The method, then:
as §1, §2

The subject of assay [17] is MDA-MB-231 cell line. In words: In vitro cell proliferation assay (MTT), MDA-MB-231. The note with it: Homo sapiens, read-out: EC50, anti-proliferative activity. It counts as cell-based. The protocol:
as §1, §2

As for `Cc1nc(Nc2ncc(C(=O)Nc3c(C)cccc3Cl)s2)cc(N2CCN(CCO)CC2)n1` [Dasatinib, reference compound], the concentration giving a half-maximal response (EC50) in [1] (HepG2, 72 hr, MTT) was at least 1000 nM; in assay [2] it was at least 1000 nM.
As to `CC(=O)c1cc2cc(NCc3cc(NC(=O)c4ccc(CN5CCN(C)CC5)cc4)ccc3C)cnc2[nH]1` [OR0734, N-{3-[(2-Acetyl-1H-pyrrolo[2,3-b]pyridin-5-ylamino)-methyl]-4-methyl-phenyl}-4-(4-methyl-piperazin-1-ylmethyl)-benzamide], the inhibition at 0.1 µM was at least 50% in assay [3]; at least 50% in [5]; under 50% in [6]; at least 50% in assay [7]; under 50% in assay [8]; at least 50% in assay [9]. Besides, in [4], the EC50 is at least 1000 nM.
In the case of `CNC(=O)c1cc2cc(NCc3cc(NC(=O)c4ccc(CN5CCN(C)CC5)cc4)ccc3C)cnc2[nH]1` [OR0753, 5-{2-Methyl-5-[4-(4-methyl-piperazin-1-ylmethyl)-benzoylamino]-benzylamino}-1H-pyrrolo[2,3-b]pyridine-2-carboxylic acid methylamide], the inhibition at 0.1 µM was at least 50% in [10]; at least 50% in assay [3]; at least 50% in assay [5]; under 50% in assay [6]; at least 50% in assay [7]; at least 50% in assay [8]. Further, the inhibition at 0.1 µM in [9] is at least 50%. Moreover, the half-maximal effective concentration (EC50) in assay [11] (HUH-6-clone5, 72 h) was 100 to 1000 nM; in assay [12] (72 hr, MTT) it was at least 1000 nM; in assay [1] (HepG2, 72 hr, MTT), at least 1000 nM; in assay [4], at least 1000 nM; in [13] (A549, 72 hr, MTT) it was at least 1000 nM; in assay [2], at least 1000 nM.
As to `CC(=O)c1cc2cc(NC(=O)c3cc(NC(=O)c4ccc(CN5CCN(C)CC5)cc4)ccc3C)cnc2[nH]1` [OR0780, N-(2-Acetyl-1H-pyrrolo[2,3-b]pyridin-5-yl)-2-methyl-5-[4-(4-methyl-piperazin-1-ylmethyl)-benzoylamino]-benzamide], the inhibition at 0.1 µM was under 50% in [10]; under 50% in assay [3]; at least 50% in assay [5]; under 50% in assay [6]; under 50% in [7]; under 50% in assay [8]. Moreover, the inhibition at 0.1 µM in [9] is under 50%. The EC50 in [14] was at least 1000 nM; in [12] (72 hr, MTT), at least 1000 nM; in [13] (A549, 72 hr, MTT) it was at least 1000 nM; in assay [15] it was at least 1000 nM.
In the case of `CC(=O)c1cc2cc(NCc3cc(NC(=O)c4ccc(CN5CCN(C)CC5)c(C(F)(F)F)c4)ccc3F)cnc2[nH]1` [OR0972, N-{3-[(2-Acetyl-1H-pyrrolo[2,3-b]pyridin-5-ylamino)-methyl]-4-fluoro-phenyl}-4-(4-methyl-piperazin-1-ylmethyl)-3-trifluoromethyl-benzamide], the EC50 in [16] (72 h) is 100 to 1000 nM; in [17] (MDA-MB-231, 72 h), at most 100 nM; in assay [12] (72 h) it was 100 to 1000 nM; in [1] (HepG2, 72 h), at most 100 nM; in assay [13] (A549, 72 h), 100 to 1000 nM. The inhibition at 0.1 µM was at least 50% in [3], at least 50% in [6], under 50% in assay [8] and at least 50% in assay [9].
`CC(=O)c1cc2cc(NC(=O)c3cccc(CNC(=S)c4cccc(C(F)(F)F)c4)c3)cnc2[nH]1` [OR1012, N-[3-(2-Acetyl-1H-pyrrolo[2,3-b]pyridin-5-ylcarbamoyl)-benzyl]-3-trifluoromethyl-thiobenzamide]: the concentration giving a half-maximal response (EC50) in [16] (72 hr, MTT) is at least 1000 nM; in assay [17] (MDA-MB-231, 72 hr, MTT), at least 1000 nM; in assay [12] (72 hr, MTT) it was at least 1000 nM; in [1] (HepG2, 72 hr, MTT), at least 1000 nM; in assay [13] (A549, 72 hr, MTT), at least 1000 nM. Also, the inhibition at 0.1 µM in [3], in [5], in [6], in assay [7], in assay [8] and in [9] was under 50% in each case.
Take `CC(=O)c1cc2cc(NCc3cc(NC(=S)Nc4cccc(C(F)(F)F)c4)ccc3C)cnc2[nH]1` [OR1015, 1-{3-[(2-Acetyl-1H-pyrrolo[2,3-b]pyridin-5-ylamino)-methyl]-4-methyl-phenyl}-3-(3-trifluoromethyl-phenyl)-thiourea]: the EC50 in assay [16] (72 hr, MTT) was at least 1000 nM; in assay [17] (MDA-MB-231, 72 hr, MTT), at least 1000 nM; in assay [12] (72 h), 100 to 1000 nM; in assay [1] (HepG2, 72 h), 100 to 1000 nM; in [13] (A549, 72 hr, MTT) it was at least 1000 nM. Also, the inhibition at 0.1 µM in assay [3], in assay [5], in assay [6], in assay [7], in assay [8] and in [9] was under 50% each time.
For `CNC(=O)c1cc(Oc2ccc(NC(=O)Nc3ccc(Cl)c(C(F)(F)F)c3)cc2)ccn1` [Sorafenib, reference compound], the EC50 is 1000 to 3000 nM in [11] (HUH-6-clone5, HuH6 Clone 5, 72 hr, MTT); 1000 to 3000 nM in assay [1] (HepG2, 72 hr, MTT); 1000 to 3000 nM in assay [4]; 1000 to 3000 nM in [2].
